Measurements from article PMC10703812, “Understanding the molecular mechanisms of odorant binding and activation of the human OR52 family” (Nature Communications, 2023).
Several values for one entry are separate records, joined by “and”; a condition that tells them apart may be missing. Identical values can stand only once.

Tests used:
OR52cs [1] = assay: cAMP signaling assay (cAMP sensor) in Hana3A cells; assay type: cell-based, human; conditions: single experiments
Method: For cAMP assay, CRE luciferase assay, and surface ELISA, the full-length OR52cs construct was cloned into the pcDNA3.1 vector. The Lucy signal sequence and FLAG peptide sequence were added to the N-terminus. Mutant constructs were generated by site-directed mutagenesis. For BRET assay, eYFP was added at the C-terminus of OR52cs with a GGGGS linker. Rluc was added to Gα for resonance partner (after L99 for Gαs, and I100 for Gαolf, respectively, with GGGGS linker back and forth). […]
(§1) Hana3A cells were seeded on 96-well white microplates and transfected with OR52cs or the corresponding mutants and cAMP sensor (Promega). The medium was exchanged with CO2-independent medium (Gibco) supplemented with 0.375 mg ml^−1 D-luciferin (Nanolight) 48 h after infection, and cells were incubated in the dark at 20 °C for 2 h. Basal luminescence was detected using a Tristar 2 LB 942 multimode reader (Berthold) until it reached a plateau. Subsequently, various concentrations of odorants and forskolin (Sigma-Aldrich) were added to each well, and luminescence was measured again. Data were analyzed and plotted using GraphPad Prism 9.4.1.

OR52cs R265A = assay: CRE luciferase assay in Hana3A cells, mutant; assay type: cell-based, human; conditions: 100 µM carboxylic acid; Fig.S7a, single experiments
Method: (§2) For cAMP assay, CRE luciferase assay, and surface ELISA, the full-length OR52cs construct was cloned into the pcDNA3.1 vector. The Lucy signal sequence and FLAG peptide sequence were added to the N-terminus. Mutant constructs were generated by site-directed mutagenesis. For BRET assay, eYFP was added at the C-terminus of OR52cs with a GGGGS linker. Rluc was added to Gα for resonance partner (after L99 for Gαs, and I100 for Gαolf, respectively, with GGGGS linker back and forth).
48 h after infection, cells were treated with odorants and incubated at 37 °C for 4 h. […] All values were divided by the Renilla luciferase activity to normalize the effect of cell confluence. All data were analyzed using GraphPad Prism 9.4.1.

OR52cs V158F/V209M = assay: cAMP signaling assay, mutant; assay type: cell-based, human; conditions: for cAMP response: Fig.S8b source data, single experiments
Method: as §2, §1

OR52cs V158F = assay: cAMP signaling assay, mutant; assay type: cell-based, human; conditions: for cAMP response: Fig.S8b source data, single experiments
Method: as §2, §1

OR52cs [2] = assay: CRE luciferase assay in Hana3A cells; assay type: cell-based, human; conditions: for relative fold of CRE luciferase activity: Fig.S7b, single experiments
Method: as §2
Hana3A cells were seeded on 96-well white microplates (SPL) and transfected with plasmids encoding CRE-luciferase, OR52cs or R265^6.59A mutant, Renilla luciferase, RTP1S, and Ric8b at a […] ratio 24 h after seeding. 48 h after infection, cells were treated with odorants and incubated at 37 °C for 4 h. Luminescence was measured using a Tristar 2 LB 942 multimode reader (Berthold). All values were divided by the Renilla luciferase activity to normalize the effect of cell confluence. All data were analyzed using GraphPad Prism 9.4.1.

OR52L1 = tested on: OR52L1; design: method as in earlier work; conditions: cited from earlier work
[3] = odorant 9.18274e-6 M, Fig.1a source data
[4] = odorant 9.18274e-8 M, Fig.S8b source data
[5] = odorant 9.18274e-7 M, Fig.S8b source data
[6] = odorant 9.18274e-6 M, Fig.S8b source data
[7] = odorant 3.0303e-5 M, Fig.S8b source data
[8] = odorant 0.0001 M, Fig.S8b source data
[9] = odorant 0.001 M, Fig.S8b source data
[10] = odorant 3.0303e-5 M, Fig.1a source data
[11] = odorant 0.0001 M, Fig.1a source data

Structure (SMILES)	cAMP response (OR52cs [1]; [3])	relative fold (luciferase activity over DMSO) (OR52cs R265A)	cAMP response (OR52cs V158F/V209M; odorant 9.18274e-8 M)	cAMP response (OR52cs V158F/V209M; odorant 9.18274e-7 M)	cAMP response (OR52cs V158F/V209M; odorant 9.18274e-6 M)	cAMP response (OR52cs V158F/V209M; odorant 3.0303e-5 M)	cAMP response (OR52cs V158F/V209M; odorant 0.0001 M)	cAMP response (OR52cs V158F/V209M; odorant 0.001 M)	cAMP response (OR52cs V158F; odorant 9.18274e-8 M)	cAMP response (OR52cs V158F; odorant 9.18274e-7 M)	cAMP response (OR52cs V158F; odorant 9.18274e-6 M)	cAMP response (OR52cs V158F; odorant 3.0303e-5 M)	cAMP response (OR52cs V158F; odorant 0.0001 M)	cAMP response (OR52cs V158F; odorant 0.001 M)	cAMP response (OR52cs [1]; [4])	cAMP response (OR52cs [1]; [5])	cAMP response (OR52cs [1]; [6])	cAMP response (OR52cs [1]; [7])	cAMP response (OR52cs [1]; [8])	cAMP response (OR52cs [1]; [9])	also measured
CCCCCCCCCCC(=O)O [Undecanoate, undecanoate]	17.2544 and 14.2907 and 24.4976	1.911 fold and 1.478 fold and 1.422 fold and 1.276 fold																			
CCCCCCCCCC(=O)O [Decanoate, decanoate]	23.4129 and 25.1996 and 45.8933	1.3086 fold and 1.135 fold and 1.747 fold and 1.1432 fold																			
CCC(=O)O [Propionate, propionate]			0.9618% and -0.01314% and -0.2398%	1.572% and -0.593% and -0.7182%	1.935% and -0.7307% and 0.6877%	2.83% and 0.05137% and 0.2753%	2.508% and 0.3655% and 0.1006%	6.973% and 2.2608% and 3.165%	0.2434% and 0.9095%	-0.2446% and -2.828%	0.996% and -2.758%	-1.498% and -2.916%	-0.9959% and -2.168%	2.021% and 1.439%	-0.2092% and 0.1117% and 0.5205%	-0.1831% and 0.1609% and 0.123%	-0.2867% and 0.1185% and 0.09817%	0.2368% and 0.05491% and -0.002619%	-0.3215% and 0.04237% and 0.3227%	0.5115% and 1.283% and 1.204%	
CCCCCCCCO [Octanol, octanol]																					activation of OR52cs (in words) (OR52cs [2]; Supplementary Fig. 7): failed to activate; relative fold of CRE luciferase activity (OR52cs [2]; odorant 10 μM): 1.663 fold and 1.557 fold and 1.263 fold and 1.4999 fold; relative fold of CRE luciferase activity (OR52cs [2]; odorant 50 μM): 1.747 fold and 1.809 fold and 1.706 fold and 1.694 fold; relative fold of CRE luciferase activity (OR52cs [2]; odorant 100 μM): 1.917 fold and 1.93 fold and 1.901 fold and 2.061 fold; relative fold of CRE luciferase activity (OR52cs [2]; odorant 250 μM): 1.931 fold and 2.053 fold and 2.136 fold and 2.342 fold; relative fold of CRE luciferase activity (OR52cs [2]; odorant 500 μM): 1.887 fold and 2.082 fold and 2.24 fold and 2.823 fold
CCCC(=O)O [Butyrate]			0.4134% and 1.119% and 0.2589%	0.6599% and 0.9287% and 0.2324%	1.238% and 1.86% and 0.7353%	1.067% and 2.455% and 1.672%	1.838% and 4.182% and 3.8607%	12.4605% and 15.8218% and 16.2328%	0.537% and 0.1319% and 1.733%	0.488% and 0.3268% and 1.1839%	0.5541% and 0.2838% and 1.329%	0.4886% and 0.5179% and 1.414%	0.8581% and 0.2707% and 1.963%	2.495% and 1.981% and 6.452%	-0.08428% and 0.1653% and 0.2939%	-0.5369% and 0.4001% and -0.04745%	0.134% and 0.6883% and 0.4284%	0.1103% and 0.05302% and 0.2786%	-0.1073% and 0.8927% and 0.1591%	1.5929% and 1.31% and 1.1069%	
CCCCCC(=O)O [Hexanoate, hexanoate]		1.1154 fold and 1.251 fold and 1.361 fold and 1.012 fold	1.222% and -0.2583% and 0.8037%	3.048% and 0.3713% and 1.148%	18.0149% and 8.5338% and 10.0807%	41.8588% and 26.1015% and 26.6027%	60.5576% and 50.8798% and 56.2545%	83.4195% and 80.8044% and 89.7505%	0.5855% and -0.5118%	0.5361% and -0.697%	0.7501% and -0.4246%	1.164% and -0.1819%	1.41% and -0.4498%	3.85% and 2.176%							response / preference (in words) (OR52cs V158F/V209M; Supplementary Fig. 8): increased responses
CCCCCCCCC(=O)O [Nonanoate, nonanoate]	36.8538 and 30.3132 and 25.7666	1.195 fold and 0.996 fold and 1.289 fold and 1.267 fold																			cAMP response (OR52cs [1]; [10]): 65.8721 and 78.3812 and 58.155; cAMP response (OR52cs [1]; [11]): 84.5947 and 88.3315 and 72.5955
CCCCCCC(=O)O [Heptanoate, heptanoate]		1.17 fold and 1.091 fold and 1.293 fold and 0.9952 fold	0.3154% and 0.3231% and 0.3938%	4.347% and 1.257% and 3.311%	29.4811% and 22.451% and 26.2109%	75.795% and 74.3485% and 82.8548%	83.9682% and 91.5635% and 102.817%	81.746% and 93.3745% and 90.7212%	0.8685% and 0.5114% and 0.9157%	1.104% and 0.7302% and 1.422%	3.442% and 2.688% and 4.371%	27.9975% and 25.6918% and 43.6578%	66.0899% and 63.5108% and 78.243%	94.8324% and 85.8407% and 105.113%							downstream signal / selectivity (in words) (OR52cs V158F; Supplementary Fig. 8): enhanced selectivity; cAMP response (OR52cs [1]; [10]): 56.3478 and 75.8757 and 80.5266; cAMP response (OR52cs [1]; [11]): 81.4095 and 85.4775 and 102.977; cAMP response (OR52cs [1]; odorant 0.001 M, Fig.1a source data): 96.609 and 80.1017 and 111.088
CCCCC(=O)O [Pentanoate, pentanoate]			-0.5993% and 0.7689% and 1.106%	-0.2116% and 0.634% and 0.6548%	0.981% and 2.2804% and 2.576%	3.113% and 5.861% and 4.955%	9.203% and 15.4507% and 12.8173%	39.0499% and 48.7069% and 47.2503%	0.9264% and 0.2953% and 1.001%	0.9435% and 0.3179% and 1.755%	1.032% and 0.4577% and 1.961%	1.125% and 0.847% and 2.468%	1.499% and 1.023% and 3.422%	5.439% and 4.505% and 7.762%	-0.162% and 0.6359% and -0.04254%	0.07645% and 0.3953% and 0.2459%	0.2758% and 0.7357% and 0.01532%	0.2715% and 0.6901% and 0.4212%	0.1615% and 1.39% and 0.4292%	2.769% and 2.642% and 1.705%	response of OR52L1 (in words) (OR52L1): responsive
